Holding throughout (assay type): binding
The target of experiment [1] is kinases (KINOMEscan panel) (Homo sapiens, UniProt P48729). The note with it: CSNK1A1; NEW KINOMEscan.
The target in experiment [2] is kinases (KINOMEscan panel) (Homo sapiens, UniProt P53671). The note with it: LIMK2; NEW KINOMEscan.
For experiment [3], the target named is kinases (KINOMEscan panel) (Homo sapiens, UniProt P57059). To be noted: kinase SIK1; NEW KINOMEscan.
In experiment [4] the target is T1, kinases (KINOMEscan panel) (Homo sapiens, UniProt Q13976).
T1 sequence (Q13976 1-671): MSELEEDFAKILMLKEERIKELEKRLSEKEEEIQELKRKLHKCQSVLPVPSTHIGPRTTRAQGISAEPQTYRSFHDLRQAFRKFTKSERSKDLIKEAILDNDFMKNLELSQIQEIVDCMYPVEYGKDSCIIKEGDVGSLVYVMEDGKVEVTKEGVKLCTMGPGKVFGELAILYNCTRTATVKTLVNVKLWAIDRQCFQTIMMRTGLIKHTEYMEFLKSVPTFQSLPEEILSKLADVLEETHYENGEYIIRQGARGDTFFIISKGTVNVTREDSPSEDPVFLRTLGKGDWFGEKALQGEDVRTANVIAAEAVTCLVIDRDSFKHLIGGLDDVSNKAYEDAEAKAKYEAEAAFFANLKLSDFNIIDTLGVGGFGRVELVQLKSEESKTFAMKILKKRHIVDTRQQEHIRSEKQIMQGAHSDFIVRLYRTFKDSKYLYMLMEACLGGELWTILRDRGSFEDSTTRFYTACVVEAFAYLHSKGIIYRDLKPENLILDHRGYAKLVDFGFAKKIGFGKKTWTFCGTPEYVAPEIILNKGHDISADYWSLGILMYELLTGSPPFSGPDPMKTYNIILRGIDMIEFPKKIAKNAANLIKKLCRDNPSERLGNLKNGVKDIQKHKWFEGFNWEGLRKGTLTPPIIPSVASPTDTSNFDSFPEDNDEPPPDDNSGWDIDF
To be noted: kinase PRKG1; NEW KINOMEscan.

For experiment [5], the target named is kinases (KINOMEscan panel) (Homo sapiens, UniProt Q14004).
In experiment [6] the target is T2, kinases (KINOMEscan panel) (Homo sapiens, UniProt Q8IVH8).
T2 sequence (Q8IVH8 1-894): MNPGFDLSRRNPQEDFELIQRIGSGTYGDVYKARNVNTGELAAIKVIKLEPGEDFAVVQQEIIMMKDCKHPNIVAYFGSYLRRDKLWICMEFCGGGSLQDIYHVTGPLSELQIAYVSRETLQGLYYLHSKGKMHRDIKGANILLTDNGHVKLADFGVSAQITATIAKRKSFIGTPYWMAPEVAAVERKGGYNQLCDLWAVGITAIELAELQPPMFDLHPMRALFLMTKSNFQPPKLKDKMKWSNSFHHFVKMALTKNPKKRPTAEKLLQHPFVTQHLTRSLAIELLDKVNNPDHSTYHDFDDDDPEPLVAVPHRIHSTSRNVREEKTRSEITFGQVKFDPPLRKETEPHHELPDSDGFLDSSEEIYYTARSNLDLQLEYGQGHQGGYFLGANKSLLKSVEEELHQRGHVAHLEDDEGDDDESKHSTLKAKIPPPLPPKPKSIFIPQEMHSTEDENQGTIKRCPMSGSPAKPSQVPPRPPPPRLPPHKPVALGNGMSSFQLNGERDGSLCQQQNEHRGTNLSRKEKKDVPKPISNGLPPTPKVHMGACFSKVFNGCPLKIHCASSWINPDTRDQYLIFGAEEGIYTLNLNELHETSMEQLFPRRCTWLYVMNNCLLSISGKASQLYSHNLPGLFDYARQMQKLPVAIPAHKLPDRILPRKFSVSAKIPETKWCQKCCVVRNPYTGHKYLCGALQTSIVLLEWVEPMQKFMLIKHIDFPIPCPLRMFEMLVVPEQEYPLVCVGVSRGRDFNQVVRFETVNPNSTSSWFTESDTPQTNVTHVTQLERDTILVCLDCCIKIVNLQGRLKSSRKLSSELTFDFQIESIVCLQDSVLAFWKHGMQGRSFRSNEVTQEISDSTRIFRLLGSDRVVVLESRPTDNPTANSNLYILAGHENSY
The note with it: NEW KINOMEscan.

The target in experiment [7] is T3, kinases (KINOMEscan panel) (Homo sapiens, UniProt Q8TF76).
T3 sequence (Q8TF76 1-798): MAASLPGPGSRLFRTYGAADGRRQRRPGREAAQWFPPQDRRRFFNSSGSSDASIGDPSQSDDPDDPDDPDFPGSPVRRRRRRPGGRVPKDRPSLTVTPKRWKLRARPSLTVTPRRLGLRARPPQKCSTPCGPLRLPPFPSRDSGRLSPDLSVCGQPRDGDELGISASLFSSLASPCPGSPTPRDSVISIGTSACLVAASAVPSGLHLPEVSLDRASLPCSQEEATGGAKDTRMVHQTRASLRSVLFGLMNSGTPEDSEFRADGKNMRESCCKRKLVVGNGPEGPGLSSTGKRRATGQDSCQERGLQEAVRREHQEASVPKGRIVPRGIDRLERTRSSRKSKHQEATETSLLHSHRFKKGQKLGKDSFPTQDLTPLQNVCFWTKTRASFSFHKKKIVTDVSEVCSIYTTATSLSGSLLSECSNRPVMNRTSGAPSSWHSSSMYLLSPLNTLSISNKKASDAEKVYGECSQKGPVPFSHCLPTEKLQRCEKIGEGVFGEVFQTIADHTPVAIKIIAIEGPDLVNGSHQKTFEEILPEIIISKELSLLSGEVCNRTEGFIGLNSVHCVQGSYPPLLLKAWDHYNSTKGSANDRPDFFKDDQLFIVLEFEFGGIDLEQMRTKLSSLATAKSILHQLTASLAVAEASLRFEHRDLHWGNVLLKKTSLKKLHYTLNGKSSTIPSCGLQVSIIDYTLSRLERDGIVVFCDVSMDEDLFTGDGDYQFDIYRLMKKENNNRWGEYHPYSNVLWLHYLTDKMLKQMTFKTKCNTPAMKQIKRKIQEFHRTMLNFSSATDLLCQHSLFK
To be noted: HASPIN; NEW KINOMEscan.

This note sets out measurements from article PMC9851200, “Multiparameter phenotypic screening for endogenous TFEB and TFE3 translocation identifies novel chemical series modulating lysosome function” (Autophagy, 2022).

Chain of kinases (KINOMEscan panel) (Homo sapiens, UniProt P48729) (P48729 whole entry): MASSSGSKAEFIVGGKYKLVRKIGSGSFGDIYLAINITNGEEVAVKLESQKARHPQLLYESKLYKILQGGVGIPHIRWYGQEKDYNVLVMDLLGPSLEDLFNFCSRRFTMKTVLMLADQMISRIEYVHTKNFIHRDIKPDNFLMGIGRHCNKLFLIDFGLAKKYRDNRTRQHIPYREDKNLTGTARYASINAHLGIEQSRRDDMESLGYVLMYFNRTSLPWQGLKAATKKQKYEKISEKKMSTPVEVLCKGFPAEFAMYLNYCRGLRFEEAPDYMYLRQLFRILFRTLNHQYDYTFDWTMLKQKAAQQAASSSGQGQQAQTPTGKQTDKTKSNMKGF
Chain of kinases (KINOMEscan panel) (Homo sapiens, UniProt P57059) (P57059 whole entry): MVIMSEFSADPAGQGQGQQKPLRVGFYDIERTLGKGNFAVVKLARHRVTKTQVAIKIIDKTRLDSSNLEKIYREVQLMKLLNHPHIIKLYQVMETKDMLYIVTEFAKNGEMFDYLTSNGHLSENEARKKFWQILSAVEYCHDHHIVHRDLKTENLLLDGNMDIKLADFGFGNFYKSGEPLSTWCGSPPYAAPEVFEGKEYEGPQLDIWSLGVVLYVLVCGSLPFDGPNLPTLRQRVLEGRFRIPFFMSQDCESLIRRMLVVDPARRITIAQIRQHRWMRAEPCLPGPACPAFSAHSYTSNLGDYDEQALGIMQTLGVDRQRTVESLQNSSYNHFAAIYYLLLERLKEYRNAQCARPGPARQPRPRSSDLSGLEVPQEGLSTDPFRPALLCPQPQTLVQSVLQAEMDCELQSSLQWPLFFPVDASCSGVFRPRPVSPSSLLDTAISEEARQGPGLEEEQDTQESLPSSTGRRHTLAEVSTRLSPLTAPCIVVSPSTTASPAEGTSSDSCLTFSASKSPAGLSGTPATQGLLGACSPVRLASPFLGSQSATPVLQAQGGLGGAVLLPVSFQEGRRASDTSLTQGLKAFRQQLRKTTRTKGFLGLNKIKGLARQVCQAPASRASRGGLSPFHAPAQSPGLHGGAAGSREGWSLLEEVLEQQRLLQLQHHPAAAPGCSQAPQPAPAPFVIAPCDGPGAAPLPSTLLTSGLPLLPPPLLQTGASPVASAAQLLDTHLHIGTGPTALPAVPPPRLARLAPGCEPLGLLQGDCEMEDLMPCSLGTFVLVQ
Chain of kinases (KINOMEscan panel) (Homo sapiens, UniProt P53671) (P53671 whole entry): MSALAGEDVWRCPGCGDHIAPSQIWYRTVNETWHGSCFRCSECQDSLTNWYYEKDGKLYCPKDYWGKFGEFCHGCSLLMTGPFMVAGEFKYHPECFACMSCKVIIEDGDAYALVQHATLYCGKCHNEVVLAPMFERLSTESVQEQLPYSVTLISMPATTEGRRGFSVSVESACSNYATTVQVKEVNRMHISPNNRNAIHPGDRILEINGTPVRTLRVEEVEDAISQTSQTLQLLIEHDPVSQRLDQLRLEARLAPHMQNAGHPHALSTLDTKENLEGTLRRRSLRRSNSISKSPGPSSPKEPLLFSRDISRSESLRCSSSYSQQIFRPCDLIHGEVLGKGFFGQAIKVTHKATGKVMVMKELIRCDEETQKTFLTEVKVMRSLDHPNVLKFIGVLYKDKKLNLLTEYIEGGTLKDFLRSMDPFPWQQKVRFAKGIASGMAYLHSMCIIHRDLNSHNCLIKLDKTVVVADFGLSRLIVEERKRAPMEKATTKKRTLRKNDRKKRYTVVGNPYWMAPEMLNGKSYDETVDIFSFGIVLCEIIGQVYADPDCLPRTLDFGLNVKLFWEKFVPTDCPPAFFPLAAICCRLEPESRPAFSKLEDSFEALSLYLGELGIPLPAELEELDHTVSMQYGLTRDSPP
Chain of kinases (KINOMEscan panel) (Homo sapiens, UniProt Q14004) (Q14004 whole entry): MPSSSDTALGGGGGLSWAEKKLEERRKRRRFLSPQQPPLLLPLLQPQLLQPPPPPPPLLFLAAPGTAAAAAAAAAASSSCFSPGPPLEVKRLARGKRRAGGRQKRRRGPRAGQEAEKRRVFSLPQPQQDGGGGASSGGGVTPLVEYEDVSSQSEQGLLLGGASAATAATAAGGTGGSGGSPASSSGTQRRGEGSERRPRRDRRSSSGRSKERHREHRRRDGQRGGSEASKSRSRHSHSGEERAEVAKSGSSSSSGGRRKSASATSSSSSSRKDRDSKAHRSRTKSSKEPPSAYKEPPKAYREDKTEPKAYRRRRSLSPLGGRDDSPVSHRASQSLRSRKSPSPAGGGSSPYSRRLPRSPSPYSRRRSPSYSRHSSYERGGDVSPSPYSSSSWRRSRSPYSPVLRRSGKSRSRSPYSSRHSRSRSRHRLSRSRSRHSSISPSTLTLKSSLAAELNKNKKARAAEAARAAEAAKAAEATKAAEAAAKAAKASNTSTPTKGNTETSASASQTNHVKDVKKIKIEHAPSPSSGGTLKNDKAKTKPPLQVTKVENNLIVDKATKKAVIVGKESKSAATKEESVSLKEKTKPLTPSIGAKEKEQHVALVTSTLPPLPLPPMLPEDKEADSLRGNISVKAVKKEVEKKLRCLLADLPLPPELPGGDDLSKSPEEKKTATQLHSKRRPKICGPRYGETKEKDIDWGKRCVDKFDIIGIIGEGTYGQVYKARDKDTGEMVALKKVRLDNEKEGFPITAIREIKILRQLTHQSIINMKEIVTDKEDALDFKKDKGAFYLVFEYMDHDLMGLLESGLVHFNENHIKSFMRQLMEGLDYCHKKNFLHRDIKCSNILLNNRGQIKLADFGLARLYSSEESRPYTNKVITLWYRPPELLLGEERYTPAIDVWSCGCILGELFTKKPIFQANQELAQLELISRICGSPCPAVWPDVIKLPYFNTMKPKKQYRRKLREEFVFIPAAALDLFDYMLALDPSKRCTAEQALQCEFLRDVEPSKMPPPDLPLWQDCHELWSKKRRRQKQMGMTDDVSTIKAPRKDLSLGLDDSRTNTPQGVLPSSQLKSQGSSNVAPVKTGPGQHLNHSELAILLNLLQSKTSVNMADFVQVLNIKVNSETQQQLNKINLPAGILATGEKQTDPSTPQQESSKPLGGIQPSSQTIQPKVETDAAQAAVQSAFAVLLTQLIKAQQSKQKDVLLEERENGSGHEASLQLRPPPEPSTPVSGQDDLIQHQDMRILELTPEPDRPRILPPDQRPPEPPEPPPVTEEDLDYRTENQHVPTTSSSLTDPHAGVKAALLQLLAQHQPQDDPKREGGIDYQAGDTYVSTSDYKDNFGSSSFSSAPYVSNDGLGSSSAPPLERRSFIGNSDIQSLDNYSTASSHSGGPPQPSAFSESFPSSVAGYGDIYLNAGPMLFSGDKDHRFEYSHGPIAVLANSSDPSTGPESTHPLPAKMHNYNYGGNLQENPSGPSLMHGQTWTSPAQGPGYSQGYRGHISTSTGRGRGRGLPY

`Cc1cccc(-c2nc(N(C)c3ccc4ncsc4c3)c3ccccc3n2)n1` [NK-161]: the “KINOMEscan CSNK1A1” value in experiment [1] was 10. Besides, in experiment [2], the “KINOMEscan LIMK2” value is reported as 9. Moreover, in experiment [3], the “KINOMEscan SIK1” value is on record as 12. For the same compound, the “KINOMEscan PRKG1” value in experiment [4] is recorded as 10. For the same compound, the “KINOMEscan CDK13” value in experiment [5] came out at 6. The “KINOMEscan MAP4K3” value in experiment [6] is reported as 22. Further, in experiment [7], the “KINOMEscan HASPIN” value is recorded as 7.
As for `Cc1cccc(-c2nc(Nc3ccc4nn(C)cc4c3)c3ccccc3n2)n1` [NK167], the “KINOMEscan CSNK1A1” value in experiment [1] was determined as 7. Also, the “KINOMEscan LIMK2” value in experiment [2] amounted to 3. Besides, in experiment [3], the “KINOMEscan SIK1” value is 1. For the same compound, in experiment [4], the “KINOMEscan PRKG1” value was determined as 0. In addition, the “KINOMEscan CDK13” value in experiment [5] stood at 8. In addition, in experiment [6], the “KINOMEscan MAP4K3” value is 20. Further, the “KINOMEscan HASPIN” value in experiment [7] was 4.
